For test [1], the system named is Canis familiaris. The test can be described thus: Inhibition of gastric acid secretion stimulated by histamine in dog was determined by peroral administration; IA means inactive. In kind it is functional, organism-based. As to conditions: Canis lupus familiaris; Stomach.
The species entered for test [2] is Mus musculus. Briefly: Organ weight ratio was determined for the compound :control.
In test [3] the test system is Rattus norvegicus. The test can be described thus: Cytoprotective activity against ethyle alcohol induced ulcers was determined in rats by peroral administration; IA means inactive. In kind it is functional, organism-based.
Test [4] is filed under the species Mus musculus. The test can be described thus: Histopathology of the stomach was determined; N means normal variation in the presence of the compound.
The species entered for test [5] is Mus musculus. Briefly: Organ weight ratio was determined for the compound with respect to (8-Benzyloxy-2-methyl-imidazo[1,2-a]pyridin-3-yl) compound.
In test [6] the test system is Mus musculus. The test can be described thus: Organ weight (stomach) was determined after administration of the compound.
The subject of test [7] is Canis familiaris. Briefly: Percent inhibition of Histamine stimulated gastric acid secretion at oral dosage of 4 mg/kg. As to conditions: Canis lupus familiaris, Stomach. The format is functional.
For test [8], the system named is Canis familiaris. The test can be described thus: Inhibition of gastric acid secretion stimulated by histamine in dog was determined by peroral administration of the compound. The format is functional. As to conditions: Canis lupus familiaris, Stomach, po.
The test system of test [9] is Canis familiaris. Briefly: Percent inhibition of Histamine stimulated gastric acid secretion at oral dosage of 8 mg/kg. In kind it is functional. Conditions: Canis lupus familiaris, Stomach.
The species named for test [10] is Mus musculus. The test can be described thus: Histopathology of the stomach was determined as HGM (Hyperplasia of grandular mucosa)in the presence of the compound.
In test [11] the test system is Canis familiaris. Briefly: Inhibition of gastric acid secretion stimulated by histamine in dog was determined by peroral administration; the regression was not significant. Conditions: Canis lupus familiaris, Stomach, po. In kind it is functional.
The subject of test [12] is Rattus norvegicus. The test can be described thus: Cytoprotective activity against ethyle alcohol induced ulcers was determined in rats by peroral administration of the compound. In kind it is functional. As to conditions: po.
Test [13] is filed under the species Mus musculus. Briefly: Histopathology of the stomach was determined as HGM (Hyperplasia of grandular mucosa) in the presence of the compound.
Test [14] relates to Canis familiaris. Briefly: Inhibition of gastric acid secretion stimulated by histamine in dog was determined by peroral administration; IA means inactive oral dose of 8 mg/kg. The format is functional, organism-based. Also noted: dose 8 mg/kg. Conditions: Canis lupus familiaris; Stomach.
Test [15] relates to Canis familiaris. Briefly: Inhibition of gastric acid secretion stimulated by histamine in dog was determined by peroral administration confidence limits (p=0.05.); value ranges from 2.1-14.0. In kind it is functional. Conditions: Canis lupus familiaris, Stomach, po.
Test [16] deals with Canis familiaris. Briefly: Inhibition of gastric acid secretion stimulated by histamine in dog was determined by peroral administration; value ranges from 0.6-3.9. The format is functional. As to conditions: Canis lupus familiaris, Stomach, po.
Test [17] deals with Canis familiaris. Briefly: Inhibition of gastric acid secretion stimulated by histamine in dog was determined by peroral administration; value ranges from 2.3-59.2. As to conditions: Canis lupus familiaris, Stomach, po. In kind it is functional.
Test [18] has as its system Canis familiaris. Briefly: Percent inhibition of Histamine -stimulated gastric acid secretion at the oral dosage of 4 mg/kg. In kind it is functional. Conditions: Canis lupus familiaris, Stomach.
Test [19] relates to Canis familiaris. The test can be described thus: Percent inhibition of Histamine -stimulated gastric acid secretion at the oral dosage of 8 mg/kg. In kind it is functional. Conditions: Canis lupus familiaris, Stomach.
In test [20] the test system is Canis familiaris. The test can be described thus: Inhibition of gastric acid secretion stimulated by histamine in dog was determined by peroral administration; value ranges from 3.2-50.6. In kind it is functional. Conditions: Canis lupus familiaris, Stomach, po.

SMILES strings stand for the structures. The source made the active and inactive calls. The calls are words filed in the database; no cut-off is given here.

For the compound `Cc1nc2c(O)cccn2c1CC#N`, the ED50 result in test [1] and in test [3] was “inactive” throughout. The results for the Organ weight ratio in test [2] and in test [5] were 1 and 0.7, respectively. Further, the Histopathology entry in [4] is given as “Within normal variation”. For the same compound, the Organ weight in test [6] was 0.8 g.

`Cc1c(CC#N)nc2c(OCc3ccccc3)cccn12` registered an inhibition in vivo at 4 mg/kg in test [7] of 19%. In addition, the ED50 in test [8] is > 4.4 mg/kg. Also, the figures for the Organ weight ratio in test [2] and in test [5] were 1.2 and 0.9, respectively. In test [3], the ED50 entry is “inactive”. This compound also came in with an Organ weight in test [6] of 0.98 g. Also, the inhibition in vivo at 8 mg/kg in test [9] turned out to be 91%. Also, the Histopathology entry in [10] is “Hyperplasia of glandular mucosa”.

As to `Cc1nc2c(OCc3ccccc3)cccn2c1N`, the median effective dose (ED50) in test [11] is 2 mg/kg; in test [12] it was 6 mg/kg. Moreover, the results for the Organ weight ratio in [2] and in test [5] were 1.2 and 1, respectively. The compound further yielded an Organ weight in test [6] of 1.09 g. Besides, in test [10], the Histopathology result is listed as “Hyperplasia of glandular mucosa”.

Consider `Cc1nc2c(NCc3ccccc3)cccn2c1CC#N`, for which the ED50 came to 2 mg/kg in test [12] and 6.7 mg/kg in [8]. Also, the Organ weight ratio in [2] is recorded as 1.2; in [5], 0.8. The compound further registered an Organ weight in [6] of 0.9 g. Further, in test [10], the Histopathology entry is “Hyperplasia of glandular mucosa”.

Consider `Cc1nc2c(OCc3ccsc3)cccn2c1CC#N`, for which the Histopathology entry in [13] was “Hyperplasia of glandular mucosa”. Further, the ED50 came to 2 mg/kg in test [12] and 2.7 mg/kg in test [8]. Besides, the Organ weight ratio was determined as 1.5 in test [2] and 1 in test [5]. In test [6], this compound yielded an Organ weight of 1.12 g.

For the compound `Cc1nc2ccc(CCc3ccccc3)cn2c1CC#N`, the ED50 in test [12] stood at 2.7 mg/kg. Besides, the Organ weight ratio in [2] is 1; in test [5] it was 0.7. Besides, the ED50 result in [14] was “inactive”. The Histopathology entry in [4] is “Within normal variation”. In [6], this compound displayed an Organ weight of 0.81 g.

On to `Cc1nc2c(OCc3ccccc3)cccn2c1CC#N`, for which the ED50 in [12] is 3 mg/kg; in test [15], 4.4 mg/kg. Further, the Organ weight ratio was 1.4 in [2] and 1 in [5]. The Organ weight in test [6] turned out to be 1.13 g. Also, the Histopathology entry in [10] is “Hyperplasia of glandular mucosa”.

On to `Cc1cn2c(OCc3ccccc3)cccc2n1`, for which the ED50 in [12] worked out at 1 mg/kg. Further, the ED50 entry in [1] was “inactive”. The Organ weight ratio in test [2] was determined as 0.9; in test [5], 0.7. The Histopathology result in test [4] is recorded as “Within normal variation”. The compound also showed an Organ weight in [6] of 0.76 g.

As for `Cc1nc2c(OCc3ccccc3)nccn2c1N`, the 50% effective dose (ED50) in [16] stood at 1.4 mg/kg; in [12], 5 mg/kg. For the same compound, the results for the Organ weight ratio in test [2] and in test [5] were 1.1 and 0.8, respectively. Moreover, the Histopathology result in test [4] is listed as “Within normal variation”. This compound also yielded an Organ weight in test [6] of 0.86 g.

`Cc1nc2c(CCc3ccccc3)cccn2c1N`: the ED50 in test [12] is 9 mg/kg; in [17] it was 6.8 mg/kg. Further, the results for the Organ weight ratio in test [2] and in test [5] were 1.1 and 0.8, respectively. Besides, the Histopathology entry in test [4] was “Within normal variation”. This compound came in with an Organ weight in test [6] of 0.88 g.

Consider `Cc1cn2cccc(OCc3ccccc3)c2n1`, for which, in test [12], the 50% effect level (ED50) was put at a dose of 4 mg/kg. Moreover, the ED50 entry in test [1] is “inactive”. In addition, the figures for the Organ weight ratio in test [2] and in [5] were 1 and 0.7, respectively. For the same compound, in [4], the Histopathology result is reported as “Within normal variation”. The Organ weight in test [6] turned out to be 0.84 g.

As for `Cc1nc2c(CCc3ccccc3)cccn2c1CC#N`, the results for the ED50 in test [12] and in test [8] were 7 mg/kg and > 4.4 mg/kg, respectively. The Organ weight ratio is 1.2 in test [2] and 0.9 in test [5]. The compound further gave an inhibition in vivo at 4 mg/kg in test [18] of 3%. Also, in [6], the Organ weight was 0.99 g. In addition, in [19], the inhibition in vivo at 8 mg/kg is 83%. For the same compound, the Histopathology entry in [10] is reported as “Hyperplasia of glandular mucosa”.

In the case of `Cc1ccn2c(CC#N)c(C)nc2c1OCc1ccccc1`, the ED50 in [12] amounted to 13 mg/kg; in test [20], 7.1 mg/kg. Besides, the results for the Organ weight ratio in test [2] and in [5] were 1.1 and 0.8, respectively. Moreover, the Histopathology entry in [4] is given as “Within normal variation”. This compound yielded an Organ weight in [6] of 0.9 g.

On to `Cc1nc2ccc(CCc3ccccc3)cn2c1N`, for which the ED50 in test [12] came out at 5.7 mg/kg. Also, in test [1], the ED50 result was “inactive”. The Organ weight ratio in test [2] was 1; in test [5], 0.7. Moreover, the Histopathology entry in [4] is given as “Within normal variation”. In test [6], this compound yielded an Organ weight of 0.81 g.

A word on the ED50: it is the midpoint of the dose-response relation. Broadly, the inhibition in vivo is the drop in the measured response relative to a control, in per cent. Read a low inhibition in vivo as a weak effect.

(Values after ChEMBL document CHEMBL1123917, “Antiulcer agents. 3. Structure-activity-toxicity relationships of substituted imidazo[1,2-a]pyridines and a related imidazo[1,2-a]pyrazine” (1987).)
